{
  "source": "patent US9096833B2",
  "about": "“Methods of treating pre-malignant ductal cancer with autophagy inhibitors” (GEORGE MASON UNIVERSITY, priority 2009, dated 2015)",
  "key": {"[1]": {"tested_on": "autophagy associated pathways", "test": "Cell signaling pathway mapping by reverse phase protein microarray (RPMA) of DCIS spheroids pre and post chloroquine", "type": "cell-based, human", "conditions": "for autophagy associated signal pathway proteins/endpoints (Atg5, AKT, ERK, mTOR, IRS-1, p38 etc.) by RPMA: chloroquine phosphate 50 μM for 4 days, spheroids pre vs post treatment, n=3", "experimental": "(§1) Pharmacological inhibition of autophagy. […] CO-containing medium was replaced three times per week for a period of 6 months.\n(§2) Statistics. The Student T-test, two tailed with Welch's correction, was used to calculate the p-value, and to determine the statistical difference of epithelial outgrowth area before and after CQ treatment. P values <0.05 were considered significant. Standard deviation (SO) or standard error of the mean (SEM) was calculated for group comparisons. Wilcoxon rank sum was used to determine the differences between CQ treated and untreated groups for the reverse phase protein arrays. A p=0.1 was considered different for small sample sizes."}, "[2]": {"tested_on": "DCIS organoid culture spheroids", "test": "Autophagosome lysosome imaging with LysoTracker Red in DCIS organoid culture", "type": "cell-based, human", "conditions": "chloroquine phosphate (50 μM) for 2 weeks"}, "[3]": {"tested_on": "DCIS organoid cell cultures", "test": "H&E histomorphology of chloroquine treated DCIS organoid cell cultures", "type": "cell-based, human", "conditions": "chloroquine phosphate (50 μM)", "experimental": "as §1\nImmunohistochemistry. Formalin fixed murine tissue or DCIS organoids were processed and paraffin embedded by commercial laboratories (AML Laboratories, Inc, Rosedale, Md. or Bi-Biomics, Nampa, Id.). Formalin fixed paraffin embedded (FFPE) tissue sections (5 μm or 1 μm thickness) mounted on positively charged glass slides were baked at 56° C. for 20 min., deparaffinized in xylene and rehydrated in a series of graded alcohols (100%, 95%, and 70%) with a final rinse in wash buffer (Dako, Carpinteria, Calif., USA). Antigen retrieval, when necessary, was performed with proteinase K or heat induced epitope retrieval. Immunostaining was performed on a Dako Autostainer with an Envision+HRP staining kit (Dako) per manufacturer's instructions. Stained tissue sections were counterstained with Hematoxylin (Dako), rinsed in distilled water and developed in Scott's Tap Water Substitute solution. Cover slips were applied using aqueous mounting medium (Paramount; Dako). Images were captured with an Olympus BX51 microscope using 4×, 10×, 20×, or 100× objectives."}, "[4]": {"tested_on": "DCIS malignant precursor cells", "experimental": "Tissue collection. […] Gross tissue pathology at the time of procurement was assessed by a board certified pathologist. Tissue containing DCIS lesions was excised for further macrodissection and rinsed in sterile phosphate buffered saline to remove sentinel lymph node dye. Using sterile technique, ductal tissue was dissected from surrounding breast adipose/fibrous tissue. The ductal tissue was rinsed in serum free DMEM/F12 medium (Invitrogen, Carlsbad, Calif., USA) supplemented with human recombinant EGF (10 ng/mL; Cell Signaling Technology, Danvers, Mass., USA or Millipore, Billerica, Mass., USA), insulin (10 μg/mL; Roche, Indianapolis, Ind., USA), streptomycin sulfate (100 μg/mL; Sigma, St. Louis, Mo., USA) and gentamicin sulfate (20 μg/mL; Sigma) prior to distribution in culture flasks (MidSci, St. Louis, Mo., USA). Ductal tissue was allowed to attach to the culture surface and observed daily for cellular outgrowths. Non-adherent organoids were removed from the culture flask.\nOrganoid ex vivo culture. Dissected breast ductal tissue was grown in 115 cm^2 TPP reclosable flasks (MidSci) or 10 cm^2 culture tubes (MidSci) in serum free DMEM/F12 medium supplemented with human recombinant EGF (10 ng/mL), insulin (10 μg/mL), streptomycin sulfate (100 μg/mL) and gentamicin sulfate (20 μg/mL), with or without 0.36% (v/v) murine Engelbreth-Holm-Swarm (EHS) derived, growth factor reduced, basement membrane extract (Trevigen, Gaithersburg, Md., USA) at 37° C. in a humidified 5.0% CO2 atmosphere. Medium was replaced three times per week. Cultures were maintained continuously for up to one year. Periodically, organoids were removed, under microscopic visualization, for propagation into new culture flasks or phenotypic and molecular analysis.\nas §1, §2"}},
  "data": [
    {"compound": "CCN(CC)CCCC(C)Nc1ccnc2cc(Cl)ccc12", "note": "(stereo not drawn) [chloroquine, N′-(7-chloroquinolin-4-yl)-N,N-diethyl-pentane-1,4-diamine]", "values": [
      {"measurement": "apoptosis (elevation of cleaved PARP Asp214)", "setting": "[1]; as early as 48 hours post treatment", "result": "induced apoptosis"},
      {"measurement": "autophagy associated signal pathway proteins/endpoints (Atg5, AKT, ERK, mTOR, IRS-1, p38 etc.) by RPMA", "setting": "[1]; listed as CQ", "result": "suppressed"},
      {"measurement": "autophagy associated signal pathway proteins/endpoints (Atg5, AKT, ERK, mTOR, IRS-1, p38 etc.) by RPMA", "setting": "[1]; listed as Chloroquine", "result": "markedly inhibited"},
      {"measurement": "autophagy associated signal pathway proteins/endpoints (Atg5, AKT, ERK, mTOR, IRS-1, p38 etc.) by RPMA", "setting": "[1]; listed as chloroquine phosphate", "result": "suppressed autophagy associated proteins"},
      {"measurement": "spheroid integrity and LysoTracker Red distribution", "setting": "[2]", "result": "Dissociation of the spheroid, and diffuse accumulation of LysoTracker Red"},
      {"measurement": "histology of organoid cultured in the presence of chloroquine for 6 months", "setting": "[3]; 6 months", "result": "complete absence of cellular outgrowths and degenerated cells within the duct"},
      {"measurement": "histology of organoid 2 days post chloroquine treatment", "setting": "[3]; 2 days", "result": "Degeneration of the invading DCIS cells within the organoid"},
      {"measurement": "explants that did not have any spheroids following chloroquine treatment", "setting": "[4]; case 09-148, chloroquine phosphate 50 μM", "result": "12 out of 14"},
      {"measurement": "spheroids after treatment", "setting": "[4]; case 09-301, n=3, 20.5±7.8 prior to treatment", "result": "no spheroids observed"},
      {"measurement": "ex vivo invasion of autologous stroma", "setting": "[4]; chloroquine phosphate", "result": "suppressed ex vivo invasion of autologous stroma"},
      {"measurement": "inhibition of spheroid outgrowth, CQ in combination with tamoxifen", "setting": "[4]; cultured DCIS cells, in combination with anti-estrogen compound (tamoxifen)", "result": "pronounced effect"},
      {"measurement": "number of spheroids generated post chloroquine treatment, majority of explants", "setting": "[4]; two different patient DCIS cases, up to 113 spheroids per duct organoid untreated", "result": "zero"}
    ]}
  ]
}
